“And” between values parts separate entries of the source, which are not always exact repeats. Identical values can stand only once. “Also recorded” adds a separate entry of the source.
Experiments:
[1] = test system: UUO-induced renal fibrosis; test: Murine unilateral ureter obstruction (UUO) renal fibrosis model; assay type: in vivo, mouse; settings: 100 mg/kg oral gavage daily for 9 days after UUO, mice
Experimental: Animal studies were carried out in accordance with the principles of laboratory animal care of the Canadian Council on Animal Care guidelines. Male C57BL/6 mice were obtained from Charles Rivers Laboratories. FIG. 13A summarizes the timeline for this experiment. UUO model was created as follows: male C57BL6J mice (8 weeks old from Charles River Laboratories) were anesthetized with 4% isofluorane and an anesthetic plane was maintained throughout surgery at 1.5-2% isofluorane with 1 L/min oxygen. A 0.5 cm incision was made longitudinally on the left flank. The left ureter and lower pole of the kidney was exposed, and the ureter was ligated with a 6′0 silk suture in close proximity to the renal pelvis. A sham operation control group was created by surgical exposure of the left ureter and lower pole of the kidney followed by closure of the incision. Subcutaneous fluids were given (1.5 ml 0.9% NaCl) and the incision was closed with 4′0 silk sutures followed by staples for the skin. Starting the day of model creation, the animals were given a daily dose of either vehicle alone (sham surgery and UUO control, 1.5% CMC and 0.2% Tween-20) or vehicle containing Compound I-32 or Compound I-1 (at 100 mg/kg) by oral gavage for 9 days following surgery. At the end of the treatment period mice were anesthetized prior to euthanasia by bilateral thoraco-abdominal incision. Blood was collected by cardiac puncture, followed by kidney perfusion with cold saline through left ventricular cannulation. The left kidney was removed, a sample taken and fixed in formalin for histological analysis. Trichrome staining was done on formalin-fixed sections (4 μm) following deparaffinization according to manufacturer's instructions (Sigma HT15-1KT). Images were quantified by measuring the percentage of positive area using Image J on micrographs captured at x200 magnification using the BX41 Olympus microscope. Statistical analysis was performed using GraphPad Prism 8. A one-way ANOVA was used to determine significance. A p-value of less than or equal to 0.05 was used as the criterion of significance. This route was selected because it simulates oral administration to mammalian, including human, subjects and ensures that the correct dose of compound is ingested by each animal.
Immunohistochemistry. Formalin-fixed kidneys were embedded in paraffin, then sectioned at 4 μm. After deparaffinization, they were stained with Masson's trichrome to assess collagen content (Sigma Aldrich, catalogue no. HT15-1T), picrosirius red (PSR) to more specifically assess pathogenic collagens I and III (Polysciences, Inc., catalogue no. 24901-500), αSMA as a marker of activated, profibrotic fibroblasts (PIERCE, catalogue no. MA1-06110; 30 min steaming for antigen retrieval, antibody used at 1:5000 for 2 h at room temperature), CD3 to identify T-lymphocytes (Dako, catalogue no. A0452; 30 min steaming for antigen retrieval, antibody used at 1:500 overnight at 4° C.) and F4/80 to identify macrophages (done by the McMaster Histology Facility). Slides were counterstained with hematoxylin, dehydrated twice with 90% ethanol, cleared twice with xylene, coverslipped with mounting media, and then left to dry overnight before imaging. Masson's trichrome, αSMA, CD3 and F4/80 were imaged under transmitted light and quantified using ImageJ. The Olympus IX81 fluorescence microscope driven by Metamorph was used to image and quantify PSR staining. Images were quantified by measuring the percentage of positive area. All micrographs were captured at x20 magnification.

c-Kit = c-Kit (Homo sapiens (Human), UniProt P10721); test: Wild type kinase screen: c-Kit; assay type: biochemical; settings: compound at 10 μM, 10 μM ATP, Data 1 and Data 2 duplicates
c-Kit, sequence (P10721 26-976): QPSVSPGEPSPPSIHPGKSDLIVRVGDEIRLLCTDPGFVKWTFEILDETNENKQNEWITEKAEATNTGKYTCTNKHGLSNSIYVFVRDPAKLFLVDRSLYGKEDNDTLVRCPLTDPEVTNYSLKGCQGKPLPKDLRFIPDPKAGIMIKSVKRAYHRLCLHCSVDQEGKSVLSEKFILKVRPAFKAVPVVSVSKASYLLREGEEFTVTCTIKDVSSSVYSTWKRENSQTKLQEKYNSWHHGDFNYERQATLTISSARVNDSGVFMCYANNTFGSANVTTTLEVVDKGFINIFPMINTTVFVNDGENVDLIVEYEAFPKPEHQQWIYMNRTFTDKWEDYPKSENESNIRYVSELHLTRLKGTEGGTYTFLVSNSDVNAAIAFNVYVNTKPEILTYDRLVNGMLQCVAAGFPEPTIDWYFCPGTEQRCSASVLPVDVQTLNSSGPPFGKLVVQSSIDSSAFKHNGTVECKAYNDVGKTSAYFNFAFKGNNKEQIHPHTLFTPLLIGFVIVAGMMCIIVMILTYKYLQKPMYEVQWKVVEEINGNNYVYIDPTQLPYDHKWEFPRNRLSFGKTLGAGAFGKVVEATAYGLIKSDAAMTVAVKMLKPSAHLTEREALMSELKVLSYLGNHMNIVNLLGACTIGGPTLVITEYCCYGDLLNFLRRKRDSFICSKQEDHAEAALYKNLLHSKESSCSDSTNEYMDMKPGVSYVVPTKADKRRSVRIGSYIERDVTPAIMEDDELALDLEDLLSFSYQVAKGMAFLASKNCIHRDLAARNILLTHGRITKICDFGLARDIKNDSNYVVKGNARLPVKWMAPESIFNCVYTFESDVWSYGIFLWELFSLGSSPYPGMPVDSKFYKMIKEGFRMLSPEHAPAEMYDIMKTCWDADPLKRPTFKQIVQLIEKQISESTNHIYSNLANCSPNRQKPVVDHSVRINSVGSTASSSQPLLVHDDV

AURORA C = AURORA C (Homo sapiens (Human), UniProt Q9UQB9); test: Wild type kinase screen: AURORA C; assay type: biochemical; settings: compound at 10 μM, 10 μM ATP, Data 1 and Data 2 duplicates
AURORA C, sequence (Q9UQB9 whole entry): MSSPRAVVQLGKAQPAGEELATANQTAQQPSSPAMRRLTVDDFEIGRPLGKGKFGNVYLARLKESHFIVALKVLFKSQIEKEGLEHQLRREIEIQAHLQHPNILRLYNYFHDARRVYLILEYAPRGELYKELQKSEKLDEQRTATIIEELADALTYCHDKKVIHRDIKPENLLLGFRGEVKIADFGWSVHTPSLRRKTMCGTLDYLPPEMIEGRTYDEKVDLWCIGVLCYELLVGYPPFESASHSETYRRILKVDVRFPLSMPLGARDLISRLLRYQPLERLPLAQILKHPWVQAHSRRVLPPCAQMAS

DDR2 = DDR2 (Homo sapiens (Human), UniProt Q16832); test: Wild type kinase screen: DDR2; assay type: biochemical; settings: compound at 10 μM, 10 μM ATP, Data 1 and Data 2 duplicates
DDR2, sequence (Q16832 22-855, species assumed): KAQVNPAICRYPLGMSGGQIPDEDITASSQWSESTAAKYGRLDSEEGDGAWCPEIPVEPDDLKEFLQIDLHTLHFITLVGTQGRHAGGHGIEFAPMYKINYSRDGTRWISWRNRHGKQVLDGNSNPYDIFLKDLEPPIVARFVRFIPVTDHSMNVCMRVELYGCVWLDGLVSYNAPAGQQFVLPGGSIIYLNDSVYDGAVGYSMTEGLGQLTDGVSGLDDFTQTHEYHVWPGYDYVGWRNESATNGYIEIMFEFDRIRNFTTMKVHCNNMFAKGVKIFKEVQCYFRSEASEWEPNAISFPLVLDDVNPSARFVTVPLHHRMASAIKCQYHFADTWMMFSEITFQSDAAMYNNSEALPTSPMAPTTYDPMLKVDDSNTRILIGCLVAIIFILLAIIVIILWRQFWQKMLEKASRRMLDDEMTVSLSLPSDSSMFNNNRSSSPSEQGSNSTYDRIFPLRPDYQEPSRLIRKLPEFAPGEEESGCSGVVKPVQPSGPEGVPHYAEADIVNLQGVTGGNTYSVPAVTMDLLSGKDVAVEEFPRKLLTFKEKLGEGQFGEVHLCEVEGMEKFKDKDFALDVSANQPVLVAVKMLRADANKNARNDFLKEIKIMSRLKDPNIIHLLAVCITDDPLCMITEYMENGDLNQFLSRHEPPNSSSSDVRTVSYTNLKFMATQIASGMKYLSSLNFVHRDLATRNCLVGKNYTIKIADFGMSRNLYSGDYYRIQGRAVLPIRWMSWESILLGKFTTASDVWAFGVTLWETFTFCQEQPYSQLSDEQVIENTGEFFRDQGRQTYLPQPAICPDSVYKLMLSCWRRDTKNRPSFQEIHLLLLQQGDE

GSK3b = GSK3b (Homo sapiens (Human), UniProt P49841); test: Wild type kinase screen: GSK3b; assay type: biochemical; settings: compound at 10 μM, 10 μM ATP, Data 1 and Data 2 duplicates
GSK3b, sequence (P49841 whole entry, species assumed): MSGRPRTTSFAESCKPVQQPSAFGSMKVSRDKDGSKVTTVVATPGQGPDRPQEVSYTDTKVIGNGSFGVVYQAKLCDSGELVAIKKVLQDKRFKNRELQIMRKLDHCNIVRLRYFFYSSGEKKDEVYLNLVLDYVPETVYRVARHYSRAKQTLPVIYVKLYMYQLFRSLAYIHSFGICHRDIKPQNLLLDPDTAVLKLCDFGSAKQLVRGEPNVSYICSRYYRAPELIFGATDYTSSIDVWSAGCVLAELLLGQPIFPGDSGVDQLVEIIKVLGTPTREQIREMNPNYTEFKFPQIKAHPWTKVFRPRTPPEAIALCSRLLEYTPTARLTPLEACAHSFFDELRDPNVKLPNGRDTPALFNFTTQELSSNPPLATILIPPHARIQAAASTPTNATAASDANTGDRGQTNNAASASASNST

BMX/ETK = BMX/ETK (Homo sapiens (Human), UniProt P51813); test: Wild type kinase screen: BMX/ETK; assay type: biochemical; settings: compound at 10 μM, 10 μM ATP, Data 1 and Data 2 duplicates
BMX/ETK, sequence (P51813 whole entry): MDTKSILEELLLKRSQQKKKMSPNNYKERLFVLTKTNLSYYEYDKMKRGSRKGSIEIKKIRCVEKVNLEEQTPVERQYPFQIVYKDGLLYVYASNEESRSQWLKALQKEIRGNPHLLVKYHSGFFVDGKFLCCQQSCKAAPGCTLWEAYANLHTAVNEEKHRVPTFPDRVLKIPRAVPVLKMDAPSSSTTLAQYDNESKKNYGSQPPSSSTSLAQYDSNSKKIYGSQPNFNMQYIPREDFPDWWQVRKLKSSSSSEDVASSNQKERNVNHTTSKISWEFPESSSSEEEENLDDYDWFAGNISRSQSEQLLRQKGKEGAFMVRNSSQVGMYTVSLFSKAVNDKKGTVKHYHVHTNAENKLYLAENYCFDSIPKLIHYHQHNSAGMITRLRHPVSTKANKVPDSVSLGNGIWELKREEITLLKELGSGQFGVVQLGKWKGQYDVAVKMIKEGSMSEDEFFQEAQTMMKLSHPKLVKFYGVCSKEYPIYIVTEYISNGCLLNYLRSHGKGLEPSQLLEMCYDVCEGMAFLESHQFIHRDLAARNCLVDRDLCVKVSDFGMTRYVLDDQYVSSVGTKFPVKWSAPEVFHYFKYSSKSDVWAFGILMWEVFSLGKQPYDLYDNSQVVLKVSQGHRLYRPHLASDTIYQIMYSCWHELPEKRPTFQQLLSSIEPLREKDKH

[2] = test system: hepatic de novo lipogenesis; test: Hepatic de novo lipogenesis (14C-glucose) in a murine model of NASH; assay type: in vivo, mouse; settings: for Hepatic de novo lipogenesis, Mean (DPM/gram liver tissue/hour): high fat/high fructose fed mice
Experimental: Experimental Protocol. FIG. 22 summarizes the study protocol. Mice were dosed daily for 7 days with a single dose of either Compound I-32 or Compound I-1 at a dose of 10 mg/kg, 30 mg/kg or 60 mg/kg. On the 8th day of the experiment mice receive final dose of Compound I-32 or Compound I-1, followed one hour later by an I.P. bolus of 14—C Glucose.
C57BL6J (8 weeks of age) were obtained for the Jackson Laboratory and fed a normal chow diet upon arrival. At ˜10 weeks of age, mice were given a diet containing high fat and high fructose (Rodent Diet with 40 kcal % Fat (Mostly Palm Oil), 20 kcal % fructose, and 0.02% cholesterol, obtained from Research Diets, Product Code: D19101102) and housed at thermoneutral conditions (26-29° C.). After 7-8 months the mice were divided into 7 groups and received a single daily dose via gavage of either vehicle (1.5% CMC and 0.2% Tween-20) or vehicle containing Compound I-32 or Compound I-1 at a concentration of 10 mg/kg, 30 mg/kg, or 60 mg/kg for 7 days. On the morning of day 8, animals received a final dose and after 1 hour ^14C-glucose (PerkinElmer) was administered at a concentration of 12 μCi per mouse in a volume of 0.1 ml in 0.9% saline I.P. One hour after ^14C-glucose was given, animals were anesthetized by I.P. injection of Ketamine/Xylazine (150 mg/12.4 mg/kg, respectively). Blood was drawn through cardiac puncture; the liver was removed, and a sample was from the left lobe and frozen in liquid nitrogen. Liver tissue was chipped on dry-ice and the weight of the chip weight recorded (30-50 mg of tissue). Liver tissue was homogenized in 1 ml of 2:1 chloroform: methanol using a bead homogenizer at 5000 rpm for 2×12 seconds. Samples were incubated with gentle shaking at 4° C. for 2 hours, vortexed for 2×12 seconds, and then centrifuge at 7000 rpm for 10 minutes at 4° C. The supernatant was transferred to a 1.5 ml Eppendorf and 200 μl of 0.9% saline was added. Samples were vortexed for 2×12 seconds and centrifuged at 3000 rpm for 10 minutes at 4° C. 200 μl of the lower organic phase was removed and added to 5 ml of scintillation fluid. The amount radioactivity in the sample was measured by scintillation counting. The number of disintegrations per minute (DPM) were determined over a 5-minute period and normalized to the amount of liver tissue. 5-10 μl of plasma obtained at termination was also counted and lipid/gram tissue counts were normalized to plasma counts. Statistical comparisons were carried out using a one-way ANOVA followed by Dunnett's post hoc test using GraphPad Prism 8 software. A p-value of less than or equal to 0.05 was used as the criterion of significance.

[3] = 10 mg/kg daily oral gavage for 7 days
[4] = 30 mg/kg daily oral gavage for 7 days
[5] = 60 mg/kg daily oral gavage for 7 days

Row | SMILES | Markers of fibrosis / UUO-induced renal fibrosis [1] | Renal T-lymphocyte infiltration (CD3 stain) [1] | Renal macrophage infiltration (F4/80 stain) [1] | Trichrome staining (kidney fibrosis) [1] | αSMA staining (kidney fibrosis) [1] | % Enzyme Activity (relative to DMSO controls) (c-Kit) [%] | % Enzyme Activity (relative to DMSO controls) (AURORA C) [%] | % Enzyme Activity (relative to DMSO controls) (DDR2) [%] | % Enzyme Activity (relative to DMSO controls) (GSK3b) [%] | % Enzyme Activity (relative to DMSO controls) (BMX/ETK) [%] | Hepatic de novo lipogenesis, Mean (DPM/gram liver tissue/hour) [2, 3] | Hepatic de novo lipogenesis, % change from vehicle control (inhibition) [2, 4] | Hepatic de novo lipogenesis, Mean (DPM/gram liver tissue/hour) [2, 4] | Hepatic de novo lipogenesis, % change from vehicle control (inhibition) [2, 5] | Hepatic de novo lipogenesis, Mean (DPM/gram liver tissue/hour) [2, 5] | Hepatic de novo lipogenesis, % change from vehicle control (inhibition) [2, 3] [%]
1 | CC(C)(CCCCc1ccc(CCCCC(C)(C)C(=O)O)cc1)C(=O)O [Compound I-1, 6-[4-(5-carboxy-5-methylhexyl)-phenyl]-2,2-dimethylhexanoic acid] | attenuated | no effect; also recorded: unaffected | significantly reduced; also recorded: similarly effective in decreasing | decreased | decreased | 81.06 | 93.1 | 69.84 | 82.73 | 51.72 | 81.25 DPM/gram liver tissue/hour | 56% and 55.65% | 43.83 DPM/gram liver tissue/hour | 69% and 68.96% | 30.68 DPM/gram liver tissue/hour | –
2 | CC(C)(CCCCc1cccc(CCCCC(C)(C)C(=O)O)c1)C(=O)O [Compound I-32, 6-[3-(5-carboxy-5-methylhexyl)-phenyl]-2,2-dimethylhexanoic acid] | attenuated | no effect; also recorded: unaffected | significantly reduced; also recorded: similarly effective in decreasing | trend to reduction | trend to reduction | 71.52 | 97.44 | 85.83 | 72.67 | 52.97 | 50.61 DPM/gram liver tissue/hour | 37.42% | 61.85 DPM/gram liver tissue/hour | 53% and 52.90% | 46.55 DPM/gram liver tissue/hour | 48.79

Reference: patent US20240398737A1, “FUNCTIONALIZED LONG-CHAIN HYDROCARBON MONO- AND DI-CARBOXYLIC ACIDS AND DERIVATIVES THEREOF, AND THEIR USE FOR THE PREVENTION OR TREATMENT OF DISEASE” (Espervita Therapeutics, Inc., priority 2021, published 2024)
